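1) Cells in 96-well plates. 2) Compound, 48 h, 5 concentrations. 3) Linear interpolation between surrounding doses. 4) Unreached endpoint = highest concentration. At the GI50, growth is halved. TGI is the concentration that stops growth completely.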
Key:
Experiment in all cases: NCI tumour cell line growth inhibition, 48 h
NCI-H460 lung = system: NCI-H460 lung
DU-145 prostate = system: DU-145 prostate
SF-268 CNS = system: SF-268 CNS
MDA-MB-435 = system: MDA-MB-435
NCI-H226 lung = system: NCI-H226 lung
SK-MEL-28 melanoma = system: SK-MEL-28 melanoma
HS 578T breast = system: HS 578T breast
SK-OV-3 ovarian = system: SK-OV-3 ovarian
HOP-92 NSCLC = system: HOP-92 NSCLC

SMILES	TGI (NCI-H460 lung) [µM]	TGI (DU-145 prostate) [µM]	TGI (SF-268 CNS) [µM]	TGI (MDA-MB-435) [µM]	TGI (NCI-H226 lung) [µM]	TGI (SK-MEL-28 melanoma) [µM]	TGI (HS 578T breast) [µM]	TGI (SK-OV-3 ovarian) [µM]	TGI (HOP-92 NSCLC) [µM]	GI50 (NCI-H460 lung) [µM]	GI50 (DU-145 prostate) [µM]	GI50 (SF-268 CNS) [µM]	GI50 (MDA-MB-435) [µM]	GI50 (HS 578T breast) [µM]	GI50 (NCI-H226 lung) [µM]	GI50 (SK-OV-3 ovarian) [µM]	GI50 (HOP-92 NSCLC) [µM]	GI50 (SK-MEL-28 melanoma) [µM]
O=C(N=Nc1ccccc1Cl)NNc1ccccc1Cl	> 100	> 100	> 100	> 100	> 100	> 100												
O=C1NC(N2CCOCC2)=N/C1=C\c1ccc(O)cc1		> 100	> 100	> 100	> 100	> 100	> 100	> 100	> 100									
O=C(OCc1ccccc1)N1CCNCCNCCN(C(=O)OCc2ccccc2)CCNCC1	52.1	> 100		29.6	> 100	29.1	44	> 100	46.7									
O=c1[nH]c(=O)n(C2OC(CO)C(O)C2O)cc1OCCCc1ccccc1 (configuration not stated)	> 100	> 100	> 100	> 100	> 100	> 100	> 100	> 100										
O=[N+]([O-])/C(C(Cl)=C(Cl)Cl)=C(/Nc1cccc2cccnc12)n1nnc2ccccc21	> 100		37.4	33	67.4	33.5	33.3	32.9										
O=c1[nH]nc(Cc2ccc(Cl)cc2)n1/N=C/c1ccc([N+](=O)[O-])o1	> 36.2	> 36.7	7.93	11.9	43.3	> 21.9	8.24	> 36.3	> 46.8									
NC(=O)CN1C=CCC(C(N)=O)=C1	> 100	> 100	> 100	> 100	> 100			> 100	> 100									
CCCCCCCCC#CCCCCCCCCCC[C@@H]1C(=O)O[C@H](C)[C@@H]1O (tested in a mixture with another compound)	35.8		30.4		> 100	> 100		> 100	25.1									
O=C(O)c1cccc(NC(C(=O)c2ccccc2)c2ccccc2)c1 (configuration not stated)	> 100	> 100	> 100	> 100		> 100	80.6	> 100	> 100									
Oc1ccc(-c2nc3ccccc3s2)cc1	> 100	> 100	90.2	> 100	> 100	> 100	78.8	86	> 100									
COc1ccccc1C1C(C#N)=C(N)Oc2n[nH]c(C)c21 (configuration not stated)	> 100	> 100	> 100	> 100	> 100	> 100	> 100	> 100	> 100	> 100	> 100	> 100	75.1	27.8	74.5	> 100	41.2	> 100
CC(C)(C)OC(=O)c1ccc(NCC2=C(Br)C(=O)C=CC2=O)cc1	> 83.6	> 94.3	> 67.8	41.3	> 90.1	41.2	67.3	> 100	28.4									
C#CCOC(=O)c1ccc(OC(C)=O)cc1	> 100	> 100	> 100	> 100	> 100		> 100	> 100	> 100									
CCOc1cc2c(cc1O)C(O)C[C@@H]1[C@@H]2CC[C@]2(C)[C@@H](O)CC[C@@H]12 (some centres not stated)		> 74	> 100	> 100	> 100	> 100	> 100	> 100	> 100									
Cc1nc(-c2cc3ccccc3oc2=O)cs1	> 100	> 100	> 100	> 100	> 100	> 100	65.8	> 100	53.9									
C[C@H](C1CC2(C)OC2(C)C(=O)O1)[C@H]1CC[C@H]2[C@@H]3[C@@H]4O[C@@H]4[C@@]4(O)CC=CC(=O)[C@]4(C)[C@H]3CC[C@]12C (some centres not stated)	> 50	> 50	> 50	> 50	> 50	> 50		> 50	> 50									
CCOC1=C(c2ccccc2)N2CCCCC2O1 (configuration not stated)	15	> 86.8	48.1	16.8	32.5	> 63.2	33.1		6									
CCN(CC)C(=O)Cn1c2c(c3ccccc31)CCCC2	> 100		> 100	> 100		> 100	> 100	> 100	> 100									
COC(NC(=O)Nc1ccccc1C)(C(F)(F)F)C(F)(F)F	> 100	> 100	> 100	> 100	> 100	> 100	> 100	> 100	> 100									
Cc1nc(Nc2ccccc2Cl)sc1C(=O)CC(=O)C(N)=O	> 100	> 100	> 100	> 100	> 100		> 100	> 100	> 100									
COc1cc2nc(-c3cccs3)nc(Nc3cccc(Cl)c3)c2cc1OC	> 100	> 100	> 100	> 100	> 100	> 100	> 100	> 100	> 100									
CC(C)(C)C1=C(Br)C(O)(C(C)(C)C)OP1(=O)c1ccccc1 (configuration not stated)	> 100	> 100	> 100	> 100		> 100	> 100	> 100	> 100									
O=[Se](O)O	> 49.9	10.8	4.94	> 100	2.48	26.8	> 100	12.8										
CCOC(=O)c1cc(Br)c(-c2onc(C)c2Br)[nH]1	> 100	> 100	> 100	> 100	> 100	> 100	> 100	74.4	> 100									

Reference: PubChem BioAssay (NCI)
